# In publication PMC3513970 (Oncogene, 2011):
# pIC50, pKd: −log10 of the molar value. Several values for one entry are separate records, joined by “and”; a condition that tells them apart may be missing. Equal entries are not always repeated.
# Tests used:
# zebrafish embryos = test: Zebrafish embryo development assay
# [1] = target: PKCΙ phosphorylation of moesin (Homo sapiens, UniProt P26038); test: In vitro kinase assay: PKCΙ phosphorylation of moesin; assay type: biochemical; settings: read-out: IC50, PKCΙ phosphorylation of moesin
# Sequence of PKCΙ phosphorylation of moesin (P26038 whole entry): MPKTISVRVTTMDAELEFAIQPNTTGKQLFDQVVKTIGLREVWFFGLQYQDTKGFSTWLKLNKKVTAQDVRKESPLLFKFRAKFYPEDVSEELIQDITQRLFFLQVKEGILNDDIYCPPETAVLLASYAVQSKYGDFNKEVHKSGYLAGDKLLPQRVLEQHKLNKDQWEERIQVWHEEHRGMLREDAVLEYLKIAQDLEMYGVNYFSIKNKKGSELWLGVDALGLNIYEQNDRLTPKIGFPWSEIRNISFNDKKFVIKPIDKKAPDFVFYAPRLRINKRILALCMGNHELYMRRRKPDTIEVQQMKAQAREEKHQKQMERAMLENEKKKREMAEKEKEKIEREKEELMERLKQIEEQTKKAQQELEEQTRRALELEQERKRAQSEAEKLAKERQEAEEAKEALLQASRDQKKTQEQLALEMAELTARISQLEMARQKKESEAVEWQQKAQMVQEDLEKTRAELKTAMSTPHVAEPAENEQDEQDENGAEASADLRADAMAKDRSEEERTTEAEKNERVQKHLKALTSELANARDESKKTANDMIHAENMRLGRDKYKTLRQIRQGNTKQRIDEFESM
# [2] = mouse
# [3] = tested on: K7M2 cells, K12 cells or HUVECs; test: Cell viability assays; assay type: cell-based; settings: 10 μM; K7M2, K12, HUVEC; data not shown
# PKCΙ, α and γ = test: Radioactive in vitro kinase profiling of PKC isoforms on non-specific substrate; assay type: biochemical; settings: myelin basic protein substrate; maximum 100 μM
# K7M2 cells [4] = test: Invasion of HUVEC monolayer by K7M2 cells; assay type: cell-based, murine; settings: 10 μM, 5 h, vs DMSO (1%)
# K7M2 cells [5] = test: Cell migration assay for synergy; assay type: cell-based, murine; settings: combination of NSC305787 and NSC668394
# K12 cells = test: Invasion of HUVEC monolayer by K12 cells; assay type: cell-based, murine; settings: 10 μM
# Xenopus embryos = test: Xenopus embryo development assay; assay type: in vivo
# PKCΙ = target: T1, PKCΙ (Homo sapiens, UniProt P41743); test: Biacore direct interaction with PKCΙ; settings: read-out: KD for binding to PKCΙ, data not shown
# T1 sequence (P41743 1-596): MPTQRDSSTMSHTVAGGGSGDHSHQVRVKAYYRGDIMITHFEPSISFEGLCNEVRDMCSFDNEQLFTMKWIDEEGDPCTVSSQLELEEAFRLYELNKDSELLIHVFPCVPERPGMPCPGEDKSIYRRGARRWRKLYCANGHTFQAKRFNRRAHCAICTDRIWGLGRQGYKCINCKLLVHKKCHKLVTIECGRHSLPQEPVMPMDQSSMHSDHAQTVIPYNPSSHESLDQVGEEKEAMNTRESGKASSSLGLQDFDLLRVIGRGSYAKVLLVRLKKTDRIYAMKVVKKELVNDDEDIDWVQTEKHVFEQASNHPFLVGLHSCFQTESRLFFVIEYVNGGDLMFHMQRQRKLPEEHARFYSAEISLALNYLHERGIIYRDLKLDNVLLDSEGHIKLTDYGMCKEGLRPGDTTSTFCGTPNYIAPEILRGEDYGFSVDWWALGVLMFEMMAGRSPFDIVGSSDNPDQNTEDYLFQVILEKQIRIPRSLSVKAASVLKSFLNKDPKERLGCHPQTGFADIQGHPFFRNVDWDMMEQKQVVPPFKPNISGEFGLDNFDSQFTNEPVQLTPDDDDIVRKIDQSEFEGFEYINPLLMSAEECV
# actin = test: SPR binding to actin; settings: read-out: KD for binding to actin; negative control; data not shown
# [6] = tested on: MNNG-HOS lung metastasis in SCID/Beige mice; test: In vivo experimental lung metastasis model, MNNG-HOS cells; set-up: species or system mouse
# [7] = target: PKCΙ phosphorylation of radixin (Homo sapiens, UniProt P35241); test: In vitro kinase assay: PKCΙ phosphorylation of radixin; assay type: biochemical; settings: read-out: IC50, PKCΙ phosphorylation of radixin
# Sequence of PKCΙ phosphorylation of radixin (P35241 whole entry): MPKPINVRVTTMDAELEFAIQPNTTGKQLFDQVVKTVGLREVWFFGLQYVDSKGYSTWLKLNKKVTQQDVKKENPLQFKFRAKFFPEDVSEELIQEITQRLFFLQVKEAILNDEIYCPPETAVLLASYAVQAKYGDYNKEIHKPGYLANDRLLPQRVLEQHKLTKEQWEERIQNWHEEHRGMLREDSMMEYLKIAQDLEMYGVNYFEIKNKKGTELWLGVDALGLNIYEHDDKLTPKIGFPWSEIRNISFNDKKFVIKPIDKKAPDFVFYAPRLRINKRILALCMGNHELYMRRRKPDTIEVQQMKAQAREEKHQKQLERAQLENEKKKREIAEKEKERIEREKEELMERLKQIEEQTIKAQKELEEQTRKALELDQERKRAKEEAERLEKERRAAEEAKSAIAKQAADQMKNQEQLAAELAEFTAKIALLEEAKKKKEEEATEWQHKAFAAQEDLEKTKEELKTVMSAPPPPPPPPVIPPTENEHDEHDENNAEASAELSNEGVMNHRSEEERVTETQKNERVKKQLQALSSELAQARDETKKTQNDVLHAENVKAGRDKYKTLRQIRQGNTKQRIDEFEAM
# recombinant WT ezrin = recombinant WT ezrin (Mus musculus, UniProt P26040); test: SPR direct binding to immobilized recombinant WT ezrin
# Sequence of recombinant WT ezrin (P26040 whole entry): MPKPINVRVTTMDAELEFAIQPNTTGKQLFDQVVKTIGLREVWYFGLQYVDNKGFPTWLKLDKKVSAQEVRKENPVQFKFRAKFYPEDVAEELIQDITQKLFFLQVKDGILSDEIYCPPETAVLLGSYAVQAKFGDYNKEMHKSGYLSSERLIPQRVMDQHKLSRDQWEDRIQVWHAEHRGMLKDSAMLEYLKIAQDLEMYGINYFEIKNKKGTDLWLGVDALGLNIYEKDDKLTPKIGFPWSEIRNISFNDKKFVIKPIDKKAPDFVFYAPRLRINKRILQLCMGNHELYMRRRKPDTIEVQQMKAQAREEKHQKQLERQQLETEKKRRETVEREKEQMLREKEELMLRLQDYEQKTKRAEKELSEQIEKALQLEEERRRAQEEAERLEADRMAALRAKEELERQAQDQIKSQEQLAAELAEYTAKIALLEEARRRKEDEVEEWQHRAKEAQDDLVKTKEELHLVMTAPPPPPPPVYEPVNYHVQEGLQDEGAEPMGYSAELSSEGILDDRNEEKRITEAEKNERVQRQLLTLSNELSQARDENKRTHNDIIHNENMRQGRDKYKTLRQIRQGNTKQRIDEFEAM
# [8] = tested on: GFP-expressing K7M2 OS cells in lung slices; test: Ex vivo mouse lung organ culture; assay type: cell-based; settings: 10 μM, vs DMSO 1%
# [9] = target: endogenous ezrin in K7M2 OS cells (Mus musculus, UniProt P26040); test: Immunoprecipitation/immunoblotting of endogenous ezrin in K7M2 cells; assay type: cell-based, murine; settings: 10 μM, 6 h
# Sequence of endogenous ezrin in K7M2 OS cells (P26040 whole entry): as above
# [10] = tested on: K7M2 lung metastasis in BALB/c mice; test: In vivo experimental lung metastasis model, K7M2 cells; set-up: species or system mouse
structure (smiles),measurement,setting,value
OC(c1cc(C23CC4CC(CC(C4)C2)C3)nc2c(Cl)cc(Cl)cc12)C1CCCCN1 (centres unmarked) [NSC305787],zebrafish embryo phenotype,zebrafish embryos; 10 μM,mimicked the ezrin MO phenotype
same,embryos with epiboly defects,"zebrafish embryos; 10 μM, 12 of 81 embryos",15%
same,embryos with epiboly defects,"zebrafish embryos; 20 μM, 71 of 71 embryos",100%
same,pIC50,[1],5.03
same,in vivo tolerability,[2],very well tolerated in vivo without any obvious acute toxicity
same,cytotoxicity,[3],Neither compound was cytotoxic
same,"inhibition of PKC activity (PKCΙ, α and γ)","PKCΙ, α and γ",required higher concentration than that required to inhibit ezrin phosphorylation
same,invasion by K7M2 cells on HUVEC monolayer,K7M2 cells [4],inhibited invasion
same,synergy between both compounds in cellular migration,K7M2 cells [5],do not show any synergy
same,invasion by K12 cells on HUVEC monolayer,K12 cells,no effect on invasion
same,Xenopus embryo phenotype at stage 12.5,Xenopus embryos; 10 μM,gastrulation defects
same,Xenopus embryo phenotype by stage 37,Xenopus embryos; 10 μM,delays in development and ventral defects
same,Xenopus embryo phenotype by stage 50,Xenopus embryos; 10 μM,short and bent tails and reduced eyes
same,Xenopus embryo phenotype at high concentration,Xenopus embryos; 40 μM,severe gastrulation defects and embryonic death
same,pKd,PKCΙ,3.76
same,pKd,actin,4.04
same,median survival,"[6]; MNNG-HOS tail vein, vehicle 50.5 days",49 days
same,number of GFP-expressing metastatic foci in lung tissues,[6]; MNNG-HOS-injected mice,no differences
same,"survival, control vs treatment groups",[6]; MNNG-HOS-injected mice,no difference in survival
same,pIC50,[7],4.26
same,binding kinetics on ezrin,recombinant WT ezrin; comparison of the two compounds,bound to and dissociated faster from ezrin than NSC668394
same,pKd,"recombinant WT ezrin; read-out: KD for binding to ezrin, average of five independent experiments",5.23 and ~5.00
same,lung metastases growth of K7M2 cells in organ culture (GFP fluorescence),[8],significantly inhibited
same,T567 phosphorylation of endogenous ezrin,[9],inhibited
same,actin binding of endogenous ezrin,[9],inhibited
same,cellular ezrin levels,[9],without altering cellular ezrin levels
same,number of GFP-expressing metastatic foci in lung tissues,[10]; K7M2-injected mice,significant decrease
same,overall survival vs vehicle group,"[10]; K7M2, log-rank, P = 0.0337 (NSC305787), P = 0.0524 (NSC668394)",significantly different from that of the vehicle-treated group
same,phospho-ezrin levels in lung–liver–kidney–spleen–skin samples,[10]; treated vs control (DMSO) animals,did not observe any meaningful differences
